# Data reported in patent publication US6914045B2, “Glycopeptide antibiotics” (Wyeth Holdings Corporation, priority 2001, dated 2005).
# Legend:
# Assay in all cases: in vitro antibacterial evaluation, MIC by broth dilution
# Format in all cases: cell-based
# Enterococcus sp. = details: broth dilution, 18 hours at 35° C.
# Summary of the method: (§1)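 Following National Committee for Clinical Laboratory Standards recommendations (M7-A2), susceptibility was measured by dilution in Muller-Hinton II […]. Bacteria were seeded at 5×10^5 CFU/mL against compound concentrations from 64 down to 0.06 μg/mL.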
# Escherichia coli = details: 18 hours at 35° C.
# Summary of the method: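 Inoculum 5×10^5 CFU/mL; concentrations 64 to 0.06 μg/mL; MIC defined as lowest inhibitory level. Conducted by broth dilution under NCCLS guidelines.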
# Staphylococcus sp. = details: broth dilution, 18 hours at 35° C.
# Summary of the method: as §1
# Streptococcus sp. = details: broth dilution, 18 hours at 35° C.
# Summary of the method: as §1
smiles,measurement,setting,value
"CC(C)CC(=O)OCC1OC(OC2C(CO)OC(Oc3ccc(CC4NC(=O)C(Cc5ccccc5)NC(=O)CNC(=O)C(CO)NC(=O)C(C(O)C5CNC(=N)N5C5OC(CO)C(O)C(O)C5O)NC(=O)C(C(O)C5CNC(=N)N5)NC4=O)cc3)C(O)C2O)C(O)C(O)C1O (centres unmarked) [Example 283c, Cyclo[glycylphenylalanyl-O-[4-O-[6-O-(3-methylbutanoyl)-hexopyranosyl]hexopyranosyl]tyrosyl-3-(2-iminoimidazolidin-4-yl)seryl-3-(3-hexopyranosyl-2-iminoimidazolidin-4-yl)serylseryl]]",MIC Enterococcus avium (GC 4558),Enterococcus sp.; Enterococcus avium (GC 4558),128 µg/mL
same,MIC Enterococcus faecalis (ATCC 29212),Enterococcus sp.; Enterococcus faecalis (ATCC 29212),128 µg/mL
same,MIC Enterococcus faecalis (GC 4553),Enterococcus sp.; Enterococcus faecalis (GC 4553),128 µg/mL
same,MIC Enterococcus faecalis (GC 4554),Enterococcus sp.; Enterococcus faecalis (GC 4554),>128 µg/mL
same,MIC Enterococcus faecalis (GC 6189),Enterococcus sp.; Enterococcus faecalis (GC 6189),128 µg/mL
same,MIC Enterococcus faecium (GC 2243),Enterococcus sp.; Enterococcus faecium (GC 2243),128 µg/mL
same,MIC Enterococcus faecium (GC 4556),Enterococcus sp.; Enterococcus faecium (GC 4556),128 µg/mL
same,MIC Enterococcus faecium (GC 4557),Enterococcus sp.; Enterococcus faecium (GC 4557),16 µg/mL
same,MIC Enterococcus faecalis (ATCC 29212),Enterococcus sp.; strain ATCC 29212,128 µg/mL
same,MIC Enterococcus faecalis (GC 2242),Enterococcus sp.; strain GC 2242,128 µg/mL
same,MIC Enterococcus faecium (GC 2243),Enterococcus sp.; strain GC 2243,128 µg/mL
same,MIC Enterococcus faecalis (GC 2691),Enterococcus sp.; strain GC 2691,128 µg/mL
same,MIC Enterococcus faecalis (GC 3059),Enterococcus sp.; strain GC 3059,>128 µg/mL
same,MIC Enterococcus faecalis (GC 4552),Enterococcus sp.; strain GC 4552,128 µg/mL
same,MIC Enterococcus faecalis (GC 4553),Enterococcus sp.; strain GC 4553,128 µg/mL
same,MIC Enterococcus faecalis (GC 4554),Enterococcus sp.; strain GC 4554,>128 µg/mL
same,MIC Enterococcus faecium (GC 4556),Enterococcus sp.; strain GC 4556,128 µg/mL
same,MIC Enterococcus faecium (GC 4557),Enterococcus sp.; strain GC 4557,16 µg/mL
same,MIC Enterococcus avium (GC 4558),Enterococcus sp.; strain GC 4558,128 µg/mL
same,MIC Enterococcus faecalis (GC 6189),Enterococcus sp.; strain GC 6189,128 µg/mL
same,MIC Escherichia coli (ATCC 25922),Escherichia coli; Escherichia coli (ATCC 25922),128 µg/mL
same,MIC Escherichia coli (GC 4559),Escherichia coli; Escherichia coli (GC 4559),128 µg/mL
same,MIC Escherichia coli (GC 4560),Escherichia coli; Escherichia coli (GC 4560),8 µg/mL
same,MIC Coagulase Negative Staphylococcus (GC 4547),Staphylococcus sp.,16 µg/mL
same,MIC Coagulase Negative Staphylococcus (GC 4548),Staphylococcus sp.,8 µg/mL
same,MIC Coagulase Negative Staphylococcus (GC 4549),Staphylococcus sp.,16 µg/mL
same,MIC Coagulase Negative Staphylococcus (GC 4551),Staphylococcus sp.,32 µg/mL
same,MIC Staphylococcus aureus (ATCC 29213),Staphylococcus sp.,32 µg/mL
same,MIC Staphylococcus aureus (GC 1131),Staphylococcus sp.,32 µg/mL
same,MIC Staphylococcus aureus (GC 3051),Staphylococcus sp.,32 µg/mL
same,MIC Staphylococcus aureus (GC 3053),Staphylococcus sp.,64 µg/mL
same,MIC Staphylococcus aureus (GC 4541),Staphylococcus sp.,32 µg/mL
same,MIC Staphylococcus aureus (GC 4542),Staphylococcus sp.,32 µg/mL
same,MIC Staphylococcus aureus (GC 4544),Staphylococcus sp.,32 µg/mL
same,MIC Staphylococcus aureus (GC 4545),Staphylococcus sp.,16 µg/mL
same,MIC Staphylococcus aureus-SMITH (GC 4543),Staphylococcus sp.,16 µg/mL
same,MIC Staphylococcus haemolyticus (GC 4546),Staphylococcus sp.,16 µg/mL
same,MIC Staphylococcus aureus (ATCC 29213),Staphylococcus sp.; strain ATCC 29213,32 µg/mL
same,MIC Staphylococcus aureus (GC 1131),Staphylococcus sp.; strain GC 1131,32 µg/mL
same,MIC Staphylococcus aureus (GC 3051),Staphylococcus sp.; strain GC 3051,32 µg/mL
same,MIC Staphylococcus aureus (GC 3053),Staphylococcus sp.; strain GC 3053,64 µg/mL
same,MIC Staphylococcus aureus (GC 4541),Staphylococcus sp.; strain GC 4541,32 µg/mL
same,MIC Staphylococcus aureus (GC 4542),Staphylococcus sp.; strain GC 4542,32 µg/mL
same,MIC Staphylococcus aureus (GC 4544),Staphylococcus sp.; strain GC 4544,32 µg/mL
same,MIC Staphylococcus aureus (GC 4545),Staphylococcus sp.; strain GC 4545,16 µg/mL
same,MIC Staphylococcus haemolyticus (GC 4546),Staphylococcus sp.; strain GC 4546,16 µg/mL
same,MIC Coagulase Negative Staphylococcus (GC 4547),Staphylococcus sp.; strain GC 4547,16 µg/mL
same,MIC Coagulase Negative Staphylococcus (GC 4548),Staphylococcus sp.; strain GC 4548,8 µg/mL
same,MIC Coagulase Negative Staphylococcus (GC 4549),Staphylococcus sp.; strain GC 4549,16 µg/mL
same,MIC Coagulase Negative Staphylococcus (GC 4551),Staphylococcus sp.; strain GC 4551,32 µg/mL
same,MIC Staphylococcus aureus-SMITH (GC 4543),Staphylococcus sp.; strain SMITH GC 4543,16 µg/mL
same,MIC Streptococcus pneumoniae (ATCC 6301),Streptococcus sp.; strain ATCC 6301,8 µg/mL
same,MIC Streptococcus pneumoniae (GC 1894),Streptococcus sp.; strain GC 1894,4 µg/mL
same,MIC Streptococcus pyogenes (GC 4563),Streptococcus sp.; strain GC 4563,16 µg/mL
same,MIC Streptococcus agalactiae (GC 4564),Streptococcus sp.; strain GC 4564,16 µg/mL
same,MIC Streptococcus pneumoniae (GC 4565),Streptococcus sp.; strain GC 4565,8 µg/mL
